The values below come from patent US8629150B2, “Compounds for the treatment of hepatitis C” (priority 2011, dated 2014).

The test concerns HCV pseudoparticles (genotype 1a HCV E1 and E2 envelope, H77C isolate). In words: HCV pseudoparticle infection assay (luciferase, Huh7 cells). The class given is cell-based, HCV genotype 1a (H77C isolate). Conditions: HCV pseudoparticle entry into Huh7 cells, luciferase 2 days after infection.
[1] abbreviates: Hepatitis C virus, Huh-7, 48 h, average of duplicates.
[2] abbreviates: Hepatitis C virus, Huh-7, 48 h, class symbol.

The molecule `CC1(C)CCNC(=O)c2ccc(cc2)Nc2cc(nc(OCC(F)(F)F)n2)NCc2ccc(cc2)OCCCN1` [Compound 1001] showed an EC50 (average of duplicates) of 0.907 µM and an EC50 (class symbol) of 0.1 to 1 µM.

Turning to `CC1CNCC(C)(C)CNC(=O)c2ccc(nc2)Nc2cc(nc(OCC(F)(F)F)n2)NCc2ccc(cc2)OC1` (centres unmarked) [Compound 1005], the EC50 was 0.00038 µM under setting [1] and less than 0.1 µM under setting [2].

In the case of `C[C@H]1CNCC(C)(C)CNC(=O)c2ccc(nc2)Nc2cc(nc(OCC(F)(F)F)n2)NCc2ccc(cc2)OC1` [Compound 1006], the EC50 is 0.00045 µM under setting [1] and less than 0.1 µM under setting [2].

For `CC1(C)CCNC(=O)c2ccc(cc2)Nc2cc(nc(OCC(F)(F)F)n2)NCc2ccc(cc2)OCCCN1` [Example 2006], the EC50 is, setting by setting: (average of duplicates) 0.326 µM; under setting [2], 0.1 to 1 µM.

`C[C@H]1CNCCCOc2ccc(cc2)CNc2cc(nc(OCC(F)(F)F)n2)Nc2ccc(cc2)C(=O)NC1` [Example 2005] displayed a half-maximal effective concentration (EC50) under setting [1] of 0.184 µM and an EC50 under setting [2] of 0.1 to 1 µM.

As to `CC1(C)CNCCCOc2ccc(cc2)CNc2cc(nc(OCC(F)(F)F)n2)Nc2ccc(cn2)C(=O)NC1` [Compound 1003], the EC50 reads like this: under setting [1], 0.00021 µM; under setting [2], less than 0.1 µM.

Turning to `CC1(C)CNCCCOc2ccc(cc2)CNc2cc(nc(OCC(F)(F)F)n2)Nc2ccc(cc2)C(=O)NC1` [Example 2001], the EC50 runs as follows: under setting [1], 0.00134 µM; under setting [2], less than 0.1 µM.

For `O=C1NCC2(CC2)CNCCCOc2ccc(cc2)CNc2cc(nc(OCC(F)(F)F)n2)Nc2ccc1cc2` [Example 2004], a half-maximal effect under setting [1] (EC50) was put at 0.396 µM and the EC50 under setting [2] was 0.1 to 1 µM.

As to `O=C1NCCCOCCCCOCCCNc2cc(nc(OCC(F)(F)F)n2)Nc2ccc1cn2` [Compound 1002], the EC50 reads like this: under setting [1], 0.215 µM; under setting [2], 0.1 to 1 µM.

For the molecule `CC1(C)CNCCCOc2ccc(cc2F)CNc2cc(nc(OCC(F)(F)F)n2)Nc2ccc(cc2)C(=O)NC1` [Example 2003], the EC50 is, setting by setting: under setting [1], 0.00076 µM; under setting [2], less than 0.1 µM.

As to `C[C@@H]1CNCC(C)(C)CNC(=O)c2ccc(nc2)Nc2cc(nc(OCC(F)(F)F)n2)NCc2ccc(cc2)OC1` [Compound 1007], the EC50 is, setting by setting: under setting [1], 0.00019 µM; under setting [2], less than 0.1 µM.

With `C=C1CNCC(C)(C)CNC(=O)c2ccc(nc2)Nc2cc(nc(OCC(F)(F)F)n2)NCc2ccc(cc2)OC1` [Compound 1004], the EC50 was 0.00049 µM under setting [1] and less than 0.1 µM under setting [2].

Regarding `CC1(C)CNCCCOc2ccc(c(F)c2)CNc2cc(nc(OCC(F)(F)F)n2)Nc2ccc(cc2)C(=O)NC1` [Example 2002], the EC50 is 0.00081 µM under setting [1] and less than 0.1 µM under setting [2].
